Assays:
[1] = target: T1, β-fructofuranosidase from Schwanniomyces occidentalis (Ffase) (Schwanniomyces occidentalis, UniProt E5D0X5, D50A); experiment: X-ray crystallography (soaking); assay type: binding
T1 construct: expressed in Saccharomyces cerevisiae (SUC2-disrupted), secreted, DEAE-purified; homodimer of 160 kDa, 535 residues per subunit; GH32; deglycosylated for crystals

[2] = target: T1, β-fructofuranosidase from Schwanniomyces occidentalis (Ffase); experiment: X-ray crystallography; assay type: binding; conditions: crystals incubated with fructosyl-mannitol, sucrose from traces in the product; deglycosylated inactive mutant; active site subsites -1/+1; paper deposits 6S2B and 6S1T without assigning them

T1 sequence (E5D0X5 entry or part of it D50A): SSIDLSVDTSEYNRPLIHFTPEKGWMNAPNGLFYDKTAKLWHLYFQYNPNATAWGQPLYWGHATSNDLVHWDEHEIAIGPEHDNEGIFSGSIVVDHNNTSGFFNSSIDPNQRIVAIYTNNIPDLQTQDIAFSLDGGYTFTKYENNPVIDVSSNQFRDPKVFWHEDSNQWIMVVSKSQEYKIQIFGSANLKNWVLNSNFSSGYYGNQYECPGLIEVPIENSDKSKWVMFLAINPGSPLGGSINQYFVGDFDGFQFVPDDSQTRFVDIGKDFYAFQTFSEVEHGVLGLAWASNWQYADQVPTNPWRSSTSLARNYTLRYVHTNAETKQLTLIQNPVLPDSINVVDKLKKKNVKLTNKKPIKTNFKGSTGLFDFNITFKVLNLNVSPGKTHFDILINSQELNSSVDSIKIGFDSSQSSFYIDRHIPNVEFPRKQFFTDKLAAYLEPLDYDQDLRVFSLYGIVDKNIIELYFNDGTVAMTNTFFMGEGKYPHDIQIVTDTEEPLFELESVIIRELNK

OCC(O)C(O)CO[C@]1(CO)O[C@H](CO)[C@@H](O)[C@@H]1O (stereo partly drawn) [fructosyl-erythritol, 1/4-O-β-D-fructofuranosyl-D-erythritol]
X-ray crystallography (soaking) ([1]; 100 mM ligand soak, pH 6.0, deglycosylated inactive mutant, active site subsites -1/+1, 1.88 Å, paper deposits 6S2B and 6S1T without assigning them): The formation of Ffase-D50A/fructosyl-erythritol complex was clearly detected

OC[C@H]1O[C@@](CO)(O[C@H]2O[C@H](CO)[C@@H](O)[C@H](O)[C@H]2O)[C@@H](O)[C@@H]1O [sucrose]
X-ray crystallography [2]: only sucrose was observed in crystals grown in the presence of fructosyl-mannitol

OC[C@@]1(O)OC[C@@H](O)[C@@H](O)[C@@H]1O [β-fructose]
X-ray crystallography (soaking) ([1]; soaked with β-fructose plus mannitol or erythritol, active site, structure not deposited): only fructose was bound at the active site in both experiments

Source: article PMC8010047, “New insights into the molecular mechanism behind mannitol and erythritol fructosylation by β-fructofuranosidase from Schwanniomyces occidentalis” (Scientific Reports, 2021)
